Counter-ions that a name gives are not always drawn.
Assays:
[1] = in vivo; cited from earlier work
[2] = Wistar rats
[3] = 1 mg/kg bolus iv (jugular vein), serum, HPLC-MS/MS, mean ± SD, n = 6 rats, SD
[4] = 1 mg/kg bolus iv, mean ± SD, n = 6 rats, SD

| SMILES | detection in ISF [1] | Cmax, Serum [2, 3] | Tmax, Serum [2, 3] | delay in time to peak vancomycin concentration (Tmax) in ISF compared to serum ([2]; 1 mg/kg bolus iv, Student's t-test p < 0.05) | AUC Ratio (ISF:serum) [2, 4] | Cmax Ratio (ISF:serum) [2, 4] | Tmax Ratio (ISF:serum) [2, 4] |
| --- | --- | --- | --- | --- | --- | --- | --- |
| O=C1NC(=O)C(c2ccccc2)(c2ccccc2)N1 [phenytoin] | not detectable | – | – | – | – | – | – |
| CN[C@H](CC(C)C)C(=O)N[C@H]1C(=O)N[C@@H](CC(N)=O)C(=O)N[C@H]2C(=O)N[C@H]3C(=O)N[C@H](C(=O)N[C@H](C(=O)O)c4cc(O)cc(O)c4-c4cc3ccc4O)[C@H](O)c3ccc(c(Cl)c3)Oc3cc2cc(c3O[C@@H]2O[C@H](CO)[C@@H](O)[C@H](O)[C@H]2O[C@H]2C[C@](C)(N)[C@H](O)[C@H](C)O2)Oc2ccc(cc2Cl)[C@H]1O [vancomycin, Vancomycin hydrochloride] | – | 2600 ± 600 ng/mL | 10 ± 0 min | ~ 17 min | 1.3 ± 0.2 | 0.9 ± 0.2 | 2.7 ± 1.6 |

— publication PMC6533066 (Biomedical microdevices, 2019)
